# Assays:
# Type in all cases: biochemical
# β-galactosidase [1] = target: T1, β-galactosidase (Escherichia coli, UniProt P00722); test: Standard microplate assay (Example 1 comparison values); set-up: purchased Sigma-Aldrich Co; settings: read-out: KM of RBG measured in a standard microplate assay
# β-galactosidase [2] = target: T1, β-galactosidase; test: Droplet microfluidic KM measurement, on-chip dilution system (Example 1e); set-up: purchased Sigma-Aldrich Co; settings: 75 s droplet incubation, Michaelis-Menten fit, read-out: KM of RBG in the enzyme/substrate system
# Procedure: In the examples, the model systems comprised an enzyme, a substrate, and an inhibitor for IC50 measurements and an enzyme and substrate alone for KM measurements. In all cases the enzyme was β-galactosidase (Sigma-Aldrich Co.), the substrate was resorufin β-D-galactopyranoside (RBG; Invitrogen Corporation), and the inhibitor was phenylethyl β-D-thiogalactopyranoside (PETG; Invitrogen Corporation).
# An aqueous phase of 520 μM RBG (the substrate), 100 μM sodium fluorescein, and 5% (v/v) DMSO in PBS were injected into the ‘compound’ input of the microfluidic device (FIG. 4) at a flow rate of 111 μl/hr. A second aqueous phase, 5% (v/v) DMSO in PBS, was injected into the ‘diluent’ input at a flow rate of 389 μl/hr. […]
# A series of microdroplets were created containing RBG (and sodium fluorescein) at different concentrations: from zero to 260 μM (50 μM sodium fluorescein) and then from 260 μM to zero. […] The amounts of fluorescent resorufin (liberated by β-galactosidase activity) and sodium fluorescein were measured for each droplet by monitoring fluorescence intensity in the 590-625 and 500-520 nm channels, respectively.
# A Michaelis-Menten curve was fitted to the points using the DRC package in R (FIG. 8). […] This value compares favorably to the value measured in a standard microplate assay: 115.6 μM (95% confidence intervals: 102.7-128.6 μM).
# PTP1B = target: T2, PTP1B (Homo sapiens, UniProt P18031); test: Microplate dose-response assay, PTP1B
# T2 construct: purchased EMD Biosciences, Inc
# T2 sequence (P18031 1-435): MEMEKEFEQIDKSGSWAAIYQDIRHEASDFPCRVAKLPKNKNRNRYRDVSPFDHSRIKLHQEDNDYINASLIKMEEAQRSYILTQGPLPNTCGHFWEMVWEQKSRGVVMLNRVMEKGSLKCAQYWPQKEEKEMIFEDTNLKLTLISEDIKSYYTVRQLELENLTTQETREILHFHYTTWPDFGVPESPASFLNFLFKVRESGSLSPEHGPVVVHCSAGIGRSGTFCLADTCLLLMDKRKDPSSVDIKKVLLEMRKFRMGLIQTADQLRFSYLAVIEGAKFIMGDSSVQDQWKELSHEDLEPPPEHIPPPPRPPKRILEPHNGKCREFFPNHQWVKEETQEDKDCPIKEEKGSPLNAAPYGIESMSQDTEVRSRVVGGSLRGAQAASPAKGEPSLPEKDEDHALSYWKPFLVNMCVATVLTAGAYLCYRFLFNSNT
# Procedure: For PTP1B, the same approach was used with the following alterations: the inhibitor was diluted in 50 mM HEPES pH 7.2; the solution of enzyme was 10 mg/l PTP1B (EMD Biosciences, Inc., California, USA) in 50 mM HEPES pH 7.2 containing 2 mM DTT, 2 mM EDTA, and 2 g/l BSA; and the solution of substrate was 68 μM FDP in 50 mM HEPES pH 7.2.
# [3] = target: T3, protein tyrosine phosphatase 1B (PTP1B) (Homo sapiens, UniProt P18031); test: High-resolution dose-response screening of PTP1B with a chemical library in droplets, FDP substrate
# T3 construct: purchased EMD Biosciences, Inc
# T3 sequence (P18031 1-435): T2 sequence (P18031 1-435)
# Procedure: High-resolution dose-response screening of PTP1B inhibition was performed in a similar manner to the screening of β-galactosidase inhibition (see above), but with the following changes: 50 mM HEPES pH 7.2 was used in place of PBS; the enzyme solution was 20 mg/l PTP1B in 50 mM HEPES pH 7.2 containing 4 mM DTT, 4 mM EDTA, and 4 g/l BSA; and the substrate solution was 68 μM FDP in 50 mM HEPES pH 7.2. In place of the 96-well plate were two 384-well plates containing 704 compounds comprising a subset of the Prestwick Chemical Library® (FIG. 21). These plates were prepared by diluting 1 μl aliquots of the compounds in pure DMSO to 10 μl of 240 μM concentration in 50 mM HEPES pH 7.2 by serial dilution. The compounds occupied columns 1 to 22 of each plate, while the wells in column 23 contained 10 μl of 240 μM sodium suramin (in the same buffer) and the wells in column 24 contained 10 μl of buffer alone.
# Injections were performed as described above. […] In this case the dispersion coefficients were assumed to be identical and the compound concentration in each droplet was calculated by assuming a linear correlation between NIR fluorescence and compound concentration.
# T1 sequence (P00722 2-1024 limits assumed): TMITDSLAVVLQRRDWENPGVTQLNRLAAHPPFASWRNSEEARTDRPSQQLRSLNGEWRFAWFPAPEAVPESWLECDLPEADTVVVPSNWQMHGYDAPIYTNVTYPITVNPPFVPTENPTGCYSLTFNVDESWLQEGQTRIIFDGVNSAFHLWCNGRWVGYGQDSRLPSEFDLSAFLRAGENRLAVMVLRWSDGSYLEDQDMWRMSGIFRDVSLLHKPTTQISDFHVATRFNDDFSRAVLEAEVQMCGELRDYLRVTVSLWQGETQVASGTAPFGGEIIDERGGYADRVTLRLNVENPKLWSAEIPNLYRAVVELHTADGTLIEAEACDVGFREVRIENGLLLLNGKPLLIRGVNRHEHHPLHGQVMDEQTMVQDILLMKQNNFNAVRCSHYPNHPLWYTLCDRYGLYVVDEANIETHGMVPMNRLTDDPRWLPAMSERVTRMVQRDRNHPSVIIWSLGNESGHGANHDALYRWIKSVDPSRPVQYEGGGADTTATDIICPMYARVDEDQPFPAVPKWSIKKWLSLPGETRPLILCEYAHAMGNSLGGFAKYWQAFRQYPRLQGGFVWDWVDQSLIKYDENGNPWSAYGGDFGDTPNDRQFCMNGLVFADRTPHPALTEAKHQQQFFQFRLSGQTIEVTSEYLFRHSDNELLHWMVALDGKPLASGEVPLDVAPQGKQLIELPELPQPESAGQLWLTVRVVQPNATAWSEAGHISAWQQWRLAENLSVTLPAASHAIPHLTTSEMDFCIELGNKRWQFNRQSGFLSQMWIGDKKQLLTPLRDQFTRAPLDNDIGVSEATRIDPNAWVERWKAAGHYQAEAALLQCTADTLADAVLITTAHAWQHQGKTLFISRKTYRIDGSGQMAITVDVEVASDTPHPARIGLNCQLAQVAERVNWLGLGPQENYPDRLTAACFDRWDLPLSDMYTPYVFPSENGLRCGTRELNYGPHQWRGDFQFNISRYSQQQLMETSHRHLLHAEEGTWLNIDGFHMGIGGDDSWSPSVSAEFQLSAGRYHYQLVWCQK
confirmation of activity in microplate (PTP1B),effect on PTP1B in high-resolution dose-response curves ([3]; droplets),"IC50 ([3]; droplets, 4-parameter Hill fit) [µM]",inhibition ([3]; 50 μM droplets) [%],SMILES,Km (β-galactosidase [1]) [µM],Km (β-galactosidase [2]) [µM]
–,–,–,–,"O=c1ccc2nc3ccc(O[C@@H]4O[C@H](CO)[C@H](O)[C@H](O)[C@H]4O)cc3oc-2c1 [RBG, resorufin β-D-galactopyranoside]",116,446
confirmed in microplate,weak activator,–,–,O=C(O)c1cc(-c2ccc(F)cc2F)ccc1O [diflunisal],–,–
not confirmed in microplate,weak inhibitor,–,–,Cn1cc[nH]c1=S [methimazole],–,–
confirmed in microplate,strong inhibition of PTP1B,33,–,NC(=O)c1cc[n+](CC2=C(C(=O)[O-])N3C(=O)[C@@H](NC(=O)[C@@H](c4ccccc4)S(=O)(=O)[O-])[C@H]3SC2)cc1.[Na+] [sodium cefsulodine],–,–

SMILES,confirmation of activity in microplate (PTP1B),effect on PTP1B in high-resolution dose-response curves ([3]; droplets),"IC50 ([3]; droplets, 4-parameter Hill fit) [µM]",inhibition ([3]; 50 μM droplets) [%],Km (β-galactosidase [1]) [µM],Km (β-galactosidase [2]) [µM]
Cc1ccc(C(=O)Nc2ccc(S(=O)(=O)[O-])c3cc(S(=O)(=O)[O-])cc(S(=O)(=O)[O-])c23)cc1NC(=O)c1cccc(NC(=O)Nc2cccc(C(=O)Nc3cc(C(=O)Nc4ccc(S(=O)(=O)[O-])c5cc(S(=O)(=O)[O-])cc(S(=O)(=O)[O-])c45)ccc3C)c2)c1.[Na+].[Na+].[Na+].[Na+].[Na+].[Na+] [sodium suramin],confirmed in microplate,activate PTP1B at low concentrations (<10 μM) and inhibit it at higher concentrations,–,89.9,–,–

# From patent US20130072404A1, “APPARATUS AND PROCESSES FOR GENERATING VARIABLE CONCENTRATION OF SOLUTES IN MICRODROPLETS” (UNIVERSITE DE STRASBOURG, priority 2009, published 2013)
